Results on two compounds are retold here after US5208340A, “Process for producing an aryl-imido-peralkanoic acid by oxidizing the corresponding aryl-imido-alkanoic acid with hydrogen peroxide” (Ausimont S.p.A., priority 1990, dated 1993).

This data set can be described thus: Solubility of PAC and PAP in halogenated solvents (Table 1). It is filed as physicochemical. As to conditions: for solubility in the particular halogenated solvents (in words): methylene chloride and trichloromethane. From the text:
The novel mechanism results in high conversion and yield under low temperature, low viscosity and internal system temperature control conditions. In addition, a very efficient product recovery can be obtained from the inorganic phase. Of course, the pressure should be such as to keep the system in the liquid phase.

Consider `O=C(CCCCCN1C(=O)c2ccccc2C1=O)OO` [PAP, ε-phthalimidoperhexanoic acid], for which the “solubility in the particular halogenated solvents (in words)” value is given as “soluble”. Besides, for the setting “Dichloromethane, at 14° C.”, the Solubility is reported as 26.3 g per 100 cm^3 of solvent. In addition, the Solubility (Dichloromethane, at 25° C., (**) Estimated value) is recorded as 35.2 g per 100 cm^3 of solvent. For the same compound, the Solubility (Trichloromethane, at 14° C.) was 26.1 g per 100 cm^3 of solvent. For the same compound, the Solubility (Trichloromethane, at 25° C.) is 34.9 g per 100 cm^3 of solvent.
Turning to `O=C(O)CCCCCN1C(=O)c2ccccc2C1=O` [PAC, ε-phthalimidohexanoic acid], the “solubility in the particular halogenated solvents (in words)” value was “even more soluble”. Also, the Solubility (Dichloromethane, at 14° C.) is 51.1 g per 100 cm^3 of solvent. Further, the Solubility (Dichloromethane, at 25° C.) is reported as 67.3 g per 100 cm^3 of solvent. Where the note is “Trichloromethane, at 14° C.”, the Solubility is recorded as 52.3 g per 100 cm^3 of solvent. Also, the Solubility (Trichloromethane, at 25° C.) is 67.9 g per 100 cm^3 of solvent.
